One block for each compound: values may come before it. Active and inactive are the calls of the source.
Assays:
[1] = viability loss in MITF-independent A375 cells – cell-based, CellTiter-Glo luminescence, dry powder, set 2, counter-screen for MITF inhibitor project, dose response (AID 624489); format: functional; settings: A-375;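 note: actives are compounds lowering A375 viability meaning general cytotoxicity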
[2] = cytotoxicity in MITF-independent A375 cells – cell-based, CellTiter-Glo luminescence, dry powder, set 4, counter-screen for MITF inhibitor project, dose response (AID 624364); format: functional; settings: A-375;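 note: A375 melanoma cells are MITF independent so this is a counter screen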
[3] = molecular target: NAD-dependent protein deacylase sirtuin-5, mitochondrial (Homo sapiens, UniProt Q9NXA8); experiment: sirtuin-5 deacylation blockers, concentration series – biochemical, fluorescence imaging, cherry-pick, set 5, dose response (AID 720591);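 note: desuccinylation of succinyl peptide AMC substrate read as fluorescence after trypsin release; potency of inhibitors that lower fluorescence and may act on trypsin instead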
NAD-dependent protein deacylase sirtuin-5, mitochondrial, sequence (Q9NXA8 whole entry): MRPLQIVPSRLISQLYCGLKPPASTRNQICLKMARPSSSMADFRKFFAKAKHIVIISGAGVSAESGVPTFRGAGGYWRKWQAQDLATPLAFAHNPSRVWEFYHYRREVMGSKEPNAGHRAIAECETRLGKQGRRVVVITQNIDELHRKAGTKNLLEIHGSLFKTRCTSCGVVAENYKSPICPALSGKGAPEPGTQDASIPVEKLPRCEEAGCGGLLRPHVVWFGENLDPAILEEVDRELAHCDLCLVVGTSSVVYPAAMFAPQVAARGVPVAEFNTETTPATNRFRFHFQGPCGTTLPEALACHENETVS

[4] = growth inhibition of yeast DHODH-expressing 3D7 parasites – SYBR Green, dry powder samples, dose response (AID 1159570); format: functional, cell-based;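 note: parasite growth measured after 72 hours of compound exposure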
[5] = P. falciparum Dd2 growth inhibitors, dose response, SYBR Green, cherry-picked samples (AID 1159567); format: functional, cell-based
[6] = growth inhibition of PfATP4-mutant resistant parasites – NITD609-resistant line, SYBR Green, dry powder, dose response (AID 1159571); format: functional, cell-based;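 note: parasites synchronized at ring stage by sorbitol before testing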
[7] = Dd2 malaria parasite growth inhibition potency – SYBR Green, dry powder samples, dose response (AID 1159566); format: functional, cell-based;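 note: potency for growth inhibition with lower SYBR green DNA signal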
[8] = toxicity to human HepG2 hepatoma cells – cell-based, plate reader, dry powder samples, cytotoxicity control, dose response (AID 1159569); format: functional;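 note: inhibitor potency with signal falling toward the positive control level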
Paired box protein Pax-8 = Paired box protein Pax-8 (Homo sapiens, UniProt Q06710); experiment: PAX8 transcriptional activity inhibition in RMG-I – RMG-I cells, luciferase, cherry-pick, dose response (AID 687027); format: functional, cell-based;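 note: luciferase reporter driven by Pax8 target thyroperoxidase promoter measured by SteadyGlo luminescence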
Paired box protein Pax-8, sequence (Q06710 whole entry): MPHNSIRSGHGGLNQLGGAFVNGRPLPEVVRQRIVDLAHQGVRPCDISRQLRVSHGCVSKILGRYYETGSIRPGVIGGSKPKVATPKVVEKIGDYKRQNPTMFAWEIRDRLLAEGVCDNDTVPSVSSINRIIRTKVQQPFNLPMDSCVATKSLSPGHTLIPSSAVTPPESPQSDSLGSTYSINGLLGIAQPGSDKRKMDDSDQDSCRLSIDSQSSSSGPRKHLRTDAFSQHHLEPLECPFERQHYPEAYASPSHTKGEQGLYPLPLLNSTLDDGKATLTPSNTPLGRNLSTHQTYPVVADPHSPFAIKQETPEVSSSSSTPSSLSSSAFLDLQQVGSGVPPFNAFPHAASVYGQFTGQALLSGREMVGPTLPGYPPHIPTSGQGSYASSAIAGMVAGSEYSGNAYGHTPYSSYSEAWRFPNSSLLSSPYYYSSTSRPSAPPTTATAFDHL

[9] = OVCAR-3 cell viability loss – plate reader, dry powder samples, PAX8 inhibitor project, dose response (AID 743044); format: functional, cell-based
[10] = molecular target: T1, Oxysterols receptor LXR-beta (Homo sapiens, UniProt P55055); format: functional, cell-based
T1 sequence (P55055 whole entry): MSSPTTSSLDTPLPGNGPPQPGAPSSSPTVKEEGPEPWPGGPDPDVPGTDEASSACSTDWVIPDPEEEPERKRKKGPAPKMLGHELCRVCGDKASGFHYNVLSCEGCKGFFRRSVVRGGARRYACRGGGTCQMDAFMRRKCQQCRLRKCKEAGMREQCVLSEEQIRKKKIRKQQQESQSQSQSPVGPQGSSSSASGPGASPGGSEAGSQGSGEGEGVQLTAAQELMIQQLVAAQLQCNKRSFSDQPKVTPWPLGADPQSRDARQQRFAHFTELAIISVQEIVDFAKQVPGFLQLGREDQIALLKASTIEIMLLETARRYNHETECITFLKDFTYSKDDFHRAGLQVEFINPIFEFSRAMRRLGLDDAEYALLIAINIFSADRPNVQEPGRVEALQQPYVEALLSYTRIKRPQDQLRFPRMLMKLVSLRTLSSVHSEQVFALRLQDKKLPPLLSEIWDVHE

[11] = molecular target: T2, Sentrin-specific protease 6 (Homo sapiens, UniProt Q9GZR1); format: functional;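 note: Luminescence-based dose-response confirmatory assay of SENP6 inhibition, following up an ultra-high-throughput screen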
T2 sequence (Q9GZR1 whole entry): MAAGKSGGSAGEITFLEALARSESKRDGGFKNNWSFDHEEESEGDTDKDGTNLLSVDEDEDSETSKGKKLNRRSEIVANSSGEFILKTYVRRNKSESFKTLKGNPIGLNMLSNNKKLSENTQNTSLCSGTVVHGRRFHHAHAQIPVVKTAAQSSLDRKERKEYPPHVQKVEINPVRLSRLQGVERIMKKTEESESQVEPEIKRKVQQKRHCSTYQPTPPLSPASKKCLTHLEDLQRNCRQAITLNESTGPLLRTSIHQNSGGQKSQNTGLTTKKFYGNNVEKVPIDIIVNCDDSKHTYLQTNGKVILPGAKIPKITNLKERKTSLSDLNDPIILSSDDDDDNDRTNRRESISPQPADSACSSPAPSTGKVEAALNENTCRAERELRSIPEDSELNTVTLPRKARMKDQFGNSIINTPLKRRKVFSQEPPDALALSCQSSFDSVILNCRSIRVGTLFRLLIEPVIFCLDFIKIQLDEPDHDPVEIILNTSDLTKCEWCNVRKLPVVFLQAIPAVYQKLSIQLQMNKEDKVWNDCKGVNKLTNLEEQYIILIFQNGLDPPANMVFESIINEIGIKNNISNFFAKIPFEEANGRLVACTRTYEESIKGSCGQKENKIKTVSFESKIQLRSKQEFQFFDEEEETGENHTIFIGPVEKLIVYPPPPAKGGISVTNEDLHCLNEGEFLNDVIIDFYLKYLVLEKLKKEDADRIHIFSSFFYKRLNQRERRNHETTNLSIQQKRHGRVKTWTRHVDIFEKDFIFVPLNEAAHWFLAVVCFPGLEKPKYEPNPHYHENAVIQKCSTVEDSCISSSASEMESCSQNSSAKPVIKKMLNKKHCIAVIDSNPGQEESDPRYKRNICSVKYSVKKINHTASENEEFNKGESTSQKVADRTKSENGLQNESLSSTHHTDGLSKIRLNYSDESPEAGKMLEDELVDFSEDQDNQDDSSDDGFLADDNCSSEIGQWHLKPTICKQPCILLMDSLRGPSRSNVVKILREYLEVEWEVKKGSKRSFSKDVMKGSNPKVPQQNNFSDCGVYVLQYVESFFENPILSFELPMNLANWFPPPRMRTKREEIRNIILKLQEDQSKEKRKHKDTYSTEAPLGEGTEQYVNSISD

[12] = molecular target: T1, Oxysterols receptor LXR-beta; format: functional, cell-based; remark: listed apart in the source
Caspase-3 = molecular target: T3, Caspase-3 (Homo sapiens, UniProt P42574); format: functional;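 note: Dose-response selectivity test against caspase-3 for candidate inhibitors of sentrin-specific proteases (SENPs)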
T3 sequence (P42574 whole entry): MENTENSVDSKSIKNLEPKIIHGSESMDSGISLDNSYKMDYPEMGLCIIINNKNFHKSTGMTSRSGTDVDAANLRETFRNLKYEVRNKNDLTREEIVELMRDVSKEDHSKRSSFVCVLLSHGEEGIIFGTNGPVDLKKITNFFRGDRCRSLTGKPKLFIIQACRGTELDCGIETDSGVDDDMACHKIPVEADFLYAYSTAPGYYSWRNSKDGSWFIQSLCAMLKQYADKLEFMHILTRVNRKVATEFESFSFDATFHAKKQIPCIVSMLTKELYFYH

[13] = molecular target: T4, Sentrin-specific protease 8 (Homo sapiens, UniProt Q96LD8); format: functional;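 note: luminescence read-out of SENP8 inhibition, dose-response confirmation following an ultra-high-throughput screen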
T4 sequence (Q96LD8 whole entry): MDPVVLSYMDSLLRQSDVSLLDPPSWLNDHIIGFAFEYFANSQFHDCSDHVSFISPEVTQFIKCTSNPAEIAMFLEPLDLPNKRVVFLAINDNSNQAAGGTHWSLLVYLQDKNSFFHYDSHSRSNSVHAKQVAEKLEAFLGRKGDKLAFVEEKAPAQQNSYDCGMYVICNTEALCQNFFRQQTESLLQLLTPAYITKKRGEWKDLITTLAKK

[14] = molecular target: T5, Sentrin-specific protease 7 (Homo sapiens, UniProt Q9BQF6); format: functional;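 note: Luminescence-based dose-response confirmation of ultra-high-throughput screening hits, measuring inhibition of SENP7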
T5 sequence (Q9BQF6 whole entry): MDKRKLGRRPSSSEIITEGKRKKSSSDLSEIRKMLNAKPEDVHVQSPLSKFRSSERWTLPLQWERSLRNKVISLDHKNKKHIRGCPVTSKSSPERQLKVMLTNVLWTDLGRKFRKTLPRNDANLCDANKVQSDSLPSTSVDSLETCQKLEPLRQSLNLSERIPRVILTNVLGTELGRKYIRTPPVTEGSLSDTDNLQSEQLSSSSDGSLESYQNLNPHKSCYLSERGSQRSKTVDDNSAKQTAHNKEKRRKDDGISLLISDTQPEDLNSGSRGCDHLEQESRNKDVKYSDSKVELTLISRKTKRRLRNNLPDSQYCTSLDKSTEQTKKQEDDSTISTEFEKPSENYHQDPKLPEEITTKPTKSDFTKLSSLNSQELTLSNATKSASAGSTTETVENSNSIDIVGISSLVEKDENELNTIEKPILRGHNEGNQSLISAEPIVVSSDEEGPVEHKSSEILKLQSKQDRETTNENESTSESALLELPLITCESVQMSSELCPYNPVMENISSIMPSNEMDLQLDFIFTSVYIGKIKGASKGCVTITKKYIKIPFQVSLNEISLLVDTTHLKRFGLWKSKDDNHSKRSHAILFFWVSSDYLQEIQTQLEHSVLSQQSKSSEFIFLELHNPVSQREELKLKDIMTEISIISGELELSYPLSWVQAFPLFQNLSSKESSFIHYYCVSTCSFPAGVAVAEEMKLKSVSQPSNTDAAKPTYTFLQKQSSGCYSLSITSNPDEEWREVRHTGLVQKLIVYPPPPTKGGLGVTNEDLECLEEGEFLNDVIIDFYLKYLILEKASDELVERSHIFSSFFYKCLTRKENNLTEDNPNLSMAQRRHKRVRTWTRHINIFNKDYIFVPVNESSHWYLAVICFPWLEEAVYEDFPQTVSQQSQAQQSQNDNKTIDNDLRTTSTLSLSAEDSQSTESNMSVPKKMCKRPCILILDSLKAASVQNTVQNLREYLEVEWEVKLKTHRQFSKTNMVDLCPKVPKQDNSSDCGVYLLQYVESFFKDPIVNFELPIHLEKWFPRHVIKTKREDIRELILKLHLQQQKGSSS

[15] = reduced cellular PGC1a acetyl-lysine signal – cell-based, cherry-picked samples, dose response (AID 720514); format: functional;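 note: potency may reflect raised or lowered acetylation signal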
[16] = molecular target: T6, DNA repair and recombination protein RAD54-like (Homo sapiens, UniProt Q92698); experiment: RAD54 Holliday junction migration blockers – biochemical, fluorescence, cherry-picked samples, dose series, confirmation (AID 651657); format: functional
T6 sequence (Q92698 whole entry): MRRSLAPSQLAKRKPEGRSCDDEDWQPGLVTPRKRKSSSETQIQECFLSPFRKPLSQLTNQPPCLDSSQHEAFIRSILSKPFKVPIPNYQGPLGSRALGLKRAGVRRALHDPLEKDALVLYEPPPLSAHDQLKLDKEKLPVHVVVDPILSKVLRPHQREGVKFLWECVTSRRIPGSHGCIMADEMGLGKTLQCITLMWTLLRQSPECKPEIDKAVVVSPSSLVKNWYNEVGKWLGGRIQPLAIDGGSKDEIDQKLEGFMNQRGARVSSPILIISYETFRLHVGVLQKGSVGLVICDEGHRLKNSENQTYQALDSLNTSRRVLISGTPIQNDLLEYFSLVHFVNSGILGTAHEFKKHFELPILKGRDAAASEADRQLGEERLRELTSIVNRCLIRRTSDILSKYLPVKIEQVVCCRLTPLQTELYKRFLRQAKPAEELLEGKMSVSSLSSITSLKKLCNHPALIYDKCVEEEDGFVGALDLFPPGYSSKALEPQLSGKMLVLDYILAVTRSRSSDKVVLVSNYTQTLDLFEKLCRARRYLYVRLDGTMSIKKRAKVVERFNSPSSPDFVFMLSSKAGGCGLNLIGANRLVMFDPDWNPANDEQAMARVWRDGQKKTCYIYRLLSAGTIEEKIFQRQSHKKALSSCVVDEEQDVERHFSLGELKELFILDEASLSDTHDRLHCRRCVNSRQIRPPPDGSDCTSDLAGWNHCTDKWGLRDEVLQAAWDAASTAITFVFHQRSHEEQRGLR

[17] = molecular target: T7, Short transient receptor potential channel 4 (Mus musculus, UniProt Q9QUQ5); experiment: block of DAMGO-driven TRPC4 calcium entry – cell-based, HEK293 TRPC4/mu-opioid, Fluo-4 calcium, dose response (AID 434942); format: functional;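 note: potency of inhibitors blocking the TRPC4 calcium response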
T7 sequence (Q9QUQ5 whole entry): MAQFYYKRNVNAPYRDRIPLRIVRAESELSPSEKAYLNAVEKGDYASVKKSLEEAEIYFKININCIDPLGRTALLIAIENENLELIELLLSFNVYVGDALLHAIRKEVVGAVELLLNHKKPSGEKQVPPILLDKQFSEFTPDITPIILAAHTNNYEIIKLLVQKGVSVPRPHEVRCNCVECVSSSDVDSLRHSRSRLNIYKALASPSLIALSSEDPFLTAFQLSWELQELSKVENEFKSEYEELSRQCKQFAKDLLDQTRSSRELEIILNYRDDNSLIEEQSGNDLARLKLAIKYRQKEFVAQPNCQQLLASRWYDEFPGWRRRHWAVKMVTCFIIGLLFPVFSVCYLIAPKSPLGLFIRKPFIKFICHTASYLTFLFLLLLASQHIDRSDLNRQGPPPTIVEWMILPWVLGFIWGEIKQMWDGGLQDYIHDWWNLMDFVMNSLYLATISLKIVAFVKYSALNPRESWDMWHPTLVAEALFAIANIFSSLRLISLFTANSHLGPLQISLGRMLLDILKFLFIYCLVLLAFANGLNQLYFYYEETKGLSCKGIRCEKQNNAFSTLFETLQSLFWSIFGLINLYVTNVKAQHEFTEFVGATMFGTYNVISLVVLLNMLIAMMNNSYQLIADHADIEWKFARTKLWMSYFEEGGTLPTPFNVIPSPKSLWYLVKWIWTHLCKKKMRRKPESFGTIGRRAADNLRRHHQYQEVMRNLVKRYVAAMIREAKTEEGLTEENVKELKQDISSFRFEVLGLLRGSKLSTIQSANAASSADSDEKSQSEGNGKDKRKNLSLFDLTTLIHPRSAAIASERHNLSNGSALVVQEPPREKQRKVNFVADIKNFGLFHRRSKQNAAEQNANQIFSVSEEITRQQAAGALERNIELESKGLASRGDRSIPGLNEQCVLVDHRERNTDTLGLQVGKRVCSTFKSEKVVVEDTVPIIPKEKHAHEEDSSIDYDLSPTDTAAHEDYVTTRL

Structure (SMILES): CN1CCN(C2=C(Nc3ccccc3)C(=O)c3ccccc3C2=O)CC1
- AC50 [1]: 24 µM (active)
- AC50 [2]: 61.7 µM (active)

- AC50 [3]: > 30 µM (inactive)
Structure (SMILES): CCOC(=O)Cc1csc(NC(=O)Cn2cnc3c2c(=O)n(C)c(=O)n3C)n1

Structure (SMILES): N#C[C@@H]1[C@@H](c2ccc(C#Cc3ccc(F)cc3)cc2)[C@H](CO)N1C(=O)C1CCCC1
- AC50 [4]: 1.82 µM (active)
- AC50 [5]: 2.53 µM (active)
- AC50 [6]: 1.99 µM (active)
- AC50 [7]: 1.52 µM (active)
- AC50 [8]: 25.5 µM (active)

Structure (SMILES): Cc1ccc(-c2n[nH]c(Nc3ccccc3)n2)cc1
- EC50 (cells): > 67.5 µM (inactive)

Structure (SMILES): C[C@H]1CN([C@@H](C)CO)C(=O)Cc2cc(NC(=O)Nc3ccc(F)cc3)ccc2O[C@H]1CN(C)Cc1ccc(Cl)c(Cl)c1
- AC50 (Paired box protein Pax-8): 7.04 µM (active)
- AC50 [9]: 32.5 µM (active)

- EC50 [10]: > 67.5 µM (inactive)
- IC50 [11]: > 100 µM (inactive)
- EC50 [12]: > 67.5 µM (inactive)
- IC50 (Caspase-3): 40.4 µM (active)
- IC50 [14]: 7.36 µM (active)
Structure (SMILES): Cc1ccc(-c2nnc(Nc3ccccc3)[nH]2)cc1
- IC50 [13]: > 100 µM (inactive)

Structure (SMILES): C[C@@H]1CN([C@H](C)CO)C(=O)c2cccc(NC(=O)c3nc4ccccc4s3)c2O[C@@H]1CN(C)CC1CCCCC1
- AC50 [15]: 27.1 µM (active)

- AC50 [3]: > 30 µM (inactive)
- AC50 [16]: 34.4 µM (active)
- EC50 [17]: 0.531 µM (active)
Structure (SMILES): Cc1ccc(Nc2cc(C)nc3c(C)cccc23)cc1
